Patent publication US10105377B2, “Compounds and nail polish” (Anacor Pharmaceuticals, Inc., priority 2014, dated 2018)

Experiments:
[1] = ex vivo human cadaver fingernails; relative to ciclopirox; cited from earlier work
[2] = Tavaborole penetration of fingernails with one, two, or four layers of nail polish (vertical diffusion cells); format: in vitro ADME, human; conditions: from Tavaborole Topical Solution, 5%; through up to four layers of nail polish
Text: Female human ex vivo, cadaver fingernails from eight donors were cleaned of any underlying tissue, rinsed with water to remove any additional materials from the surface and then characterized for width, length, thickness, and weight. Four different treatment groups were used to evaluate different nail polish application practices. In the first treatment group, one nail from each of seven donors (randomized to treatment group) was painted according to the first nail polish application practice. In the second treatment group, a second nail from each of seven donors (randomized to treatment group) was painted according to the second nail polish application practice. In the third treatment group, a third nail from each of seven donors (randomized to treatment group) was painted according to the third nail polish application practice. In the fourth treatment group, a fourth nail from each of seven donors (randomized to treatment group) was painted according to the fourth nail polish application practice. […]
Vertical diffusion cells were filled with pre-warmed receiving medium of phosphate buffered saline (pH 7.4) and a small stir bar, and were allowed to equilibrate to 32±1.0° C. The cell volumes were determined prior to initiating the study. […] Prior to dosing, each cell was evaluated for leaks. […]

- penetration through layers of nail polish (in words) [2]: able to penetrate
Compound: OB1OCc2cc(F)ccc21 [tavaborole, 5-fluoro-1,3-dihydro-1-hydroxy-2,1-benzoxaborole]
- quantity through the nail compared with ciclopirox [1]: 250 fold
